Experimental data taken from the kinase profiling compilation of Christmann-Franck et al. (2016).
Several values for one entry are separate records, joined by “and”; a condition that tells them apart may be missing. Equal entries are not always repeated.

What was measured:
Test in all cases: radiometric filter-binding kinase assay, Kinase HotSpot
Details in all cases: compound 0.5 µM; ATP 10 µM
[1] = biological target: ACVR1 (human) (UniProt Q04771)
[2] = biological target: ALK (human) (UniProt Q9UM73)
[3] = biological target: AURKC (human) (UniProt Q9UQB9)
[4] = biological target: CDK6 CCND1 (human) (UniProt Q00534+P24385)
[5] = biological target: CHEK2 (human) (UniProt O96017)
CHEK2 (human), sequence (O96017 whole entry, looked up): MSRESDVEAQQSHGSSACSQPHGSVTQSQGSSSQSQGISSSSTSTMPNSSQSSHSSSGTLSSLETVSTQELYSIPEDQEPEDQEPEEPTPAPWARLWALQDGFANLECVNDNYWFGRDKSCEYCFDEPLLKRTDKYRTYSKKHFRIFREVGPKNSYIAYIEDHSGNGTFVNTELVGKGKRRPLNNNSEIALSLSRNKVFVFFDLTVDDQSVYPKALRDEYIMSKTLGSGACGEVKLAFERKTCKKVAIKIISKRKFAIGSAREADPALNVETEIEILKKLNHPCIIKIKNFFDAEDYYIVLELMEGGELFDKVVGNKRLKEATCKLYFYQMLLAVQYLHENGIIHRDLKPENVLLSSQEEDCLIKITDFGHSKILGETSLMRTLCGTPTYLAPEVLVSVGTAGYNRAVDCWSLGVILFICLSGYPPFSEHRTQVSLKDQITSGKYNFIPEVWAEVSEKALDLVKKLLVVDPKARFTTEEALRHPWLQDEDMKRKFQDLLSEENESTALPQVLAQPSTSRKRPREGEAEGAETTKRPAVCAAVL

[6] = biological target: CHUK (human) (UniProt O15111)
CHUK (human), sequence (O15111 whole entry, looked up): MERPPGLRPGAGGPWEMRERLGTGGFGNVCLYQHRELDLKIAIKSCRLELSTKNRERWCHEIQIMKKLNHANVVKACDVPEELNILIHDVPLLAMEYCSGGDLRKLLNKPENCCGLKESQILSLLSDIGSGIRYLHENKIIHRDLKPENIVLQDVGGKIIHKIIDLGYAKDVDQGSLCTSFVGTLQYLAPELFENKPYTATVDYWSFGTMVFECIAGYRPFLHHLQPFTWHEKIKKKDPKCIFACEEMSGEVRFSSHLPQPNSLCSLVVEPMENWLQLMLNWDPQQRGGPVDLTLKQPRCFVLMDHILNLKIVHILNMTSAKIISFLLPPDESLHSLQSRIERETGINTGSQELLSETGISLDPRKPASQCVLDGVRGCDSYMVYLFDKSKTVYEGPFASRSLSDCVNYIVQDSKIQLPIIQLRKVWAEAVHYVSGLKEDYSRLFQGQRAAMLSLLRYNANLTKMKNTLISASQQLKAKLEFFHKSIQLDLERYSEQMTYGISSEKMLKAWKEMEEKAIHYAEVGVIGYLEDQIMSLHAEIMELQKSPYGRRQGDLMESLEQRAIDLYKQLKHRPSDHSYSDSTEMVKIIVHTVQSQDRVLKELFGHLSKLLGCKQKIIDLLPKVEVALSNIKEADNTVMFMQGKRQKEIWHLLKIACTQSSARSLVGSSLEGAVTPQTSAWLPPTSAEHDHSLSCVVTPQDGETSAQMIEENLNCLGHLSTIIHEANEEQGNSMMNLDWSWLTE

[7] = biological target: CLK3 (human) (UniProt P49761)
[8] = biological target: EPHA4 (human) (UniProt P54764)
[9] = biological target: ERBB2 (human) (UniProt P04626)
[10] = biological target: FGFR4 (human) (UniProt P22455)
[11] = biological target: IRAK1 (human) (UniProt P51617)
[12] = biological target: JAK3 JH1 JH2 (human) (UniProt P52333)
[13] = biological target: KDR (human) (UniProt P35968)
[14] = biological target: KIT (human) (UniProt P10721)
[15] = biological target: MAPK1 (human) (UniProt P28482)
[16] = biological target: MAPK10 (human) (UniProt P53779)
MAPK10 (human), sequence (P53779 whole entry, looked up): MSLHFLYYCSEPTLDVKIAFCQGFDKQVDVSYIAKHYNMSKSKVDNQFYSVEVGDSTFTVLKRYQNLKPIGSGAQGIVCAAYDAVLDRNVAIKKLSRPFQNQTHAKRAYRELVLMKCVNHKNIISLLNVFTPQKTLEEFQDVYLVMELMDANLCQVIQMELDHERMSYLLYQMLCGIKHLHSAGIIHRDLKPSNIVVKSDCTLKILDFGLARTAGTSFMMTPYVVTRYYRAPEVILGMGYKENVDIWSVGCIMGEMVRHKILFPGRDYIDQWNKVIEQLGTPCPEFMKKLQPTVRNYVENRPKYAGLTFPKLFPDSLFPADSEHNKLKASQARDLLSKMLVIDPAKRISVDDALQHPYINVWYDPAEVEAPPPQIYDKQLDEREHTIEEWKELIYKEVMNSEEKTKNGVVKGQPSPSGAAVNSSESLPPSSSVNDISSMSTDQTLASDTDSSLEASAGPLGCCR

[17] = biological target: MAPK12 (human) (UniProt P53778)
[18] = biological target: MAPK13 (human) (UniProt O15264)
[19] = biological target: MARK1 (human) (UniProt Q9P0L2)
[20] = biological target: MELK (human) (UniProt Q14680)
[21] = biological target: MST1R (human) (UniProt Q04912)
[22] = biological target: MST4 (human) (UniProt Q9P289)
[23] = biological target: MYLK (human) (UniProt Q15746)
[24] = biological target: NEK4 (human) (UniProt P51957)
[25] = biological target: NEK6 (human) (UniProt Q9HC98)
[26] = biological target: NEK7 (human) (UniProt Q8TDX7)
[27] = biological target: NUAK2 (human) (UniProt Q9H093)
NUAK2 (human), sequence (Q9H093 whole entry, looked up): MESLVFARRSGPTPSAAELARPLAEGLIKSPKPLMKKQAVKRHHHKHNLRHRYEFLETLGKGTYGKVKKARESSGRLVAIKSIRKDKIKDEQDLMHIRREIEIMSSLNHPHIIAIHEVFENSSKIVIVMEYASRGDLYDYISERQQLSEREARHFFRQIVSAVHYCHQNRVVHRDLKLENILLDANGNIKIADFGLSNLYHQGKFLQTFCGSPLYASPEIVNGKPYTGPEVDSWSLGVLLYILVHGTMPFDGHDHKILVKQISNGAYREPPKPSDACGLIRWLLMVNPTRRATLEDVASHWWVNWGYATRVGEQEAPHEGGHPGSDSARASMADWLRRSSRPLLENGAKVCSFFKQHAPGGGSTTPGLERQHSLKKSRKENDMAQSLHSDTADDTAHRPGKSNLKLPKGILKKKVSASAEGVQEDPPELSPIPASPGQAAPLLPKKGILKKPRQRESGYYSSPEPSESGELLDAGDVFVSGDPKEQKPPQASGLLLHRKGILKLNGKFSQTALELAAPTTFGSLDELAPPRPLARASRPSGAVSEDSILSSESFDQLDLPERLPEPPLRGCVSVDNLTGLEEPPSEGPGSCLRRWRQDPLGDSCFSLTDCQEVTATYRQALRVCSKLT

[28] = biological target: PASK (human) (UniProt Q96RG2)
[29] = biological target: PIM3 (human) (UniProt Q86V86)
[30] = biological target: PRKCA (human) (UniProt P17252)
[31] = biological target: PRKCH (human) (UniProt P24723)
[32] = biological target: PRKCZ (human) (UniProt Q05513)
[33] = biological target: PRKD2 (human) (UniProt Q9BZL6)
[34] = biological target: PRKG1 (human) (UniProt Q13976)
PRKG1 (human), sequence (Q13976 whole entry, looked up): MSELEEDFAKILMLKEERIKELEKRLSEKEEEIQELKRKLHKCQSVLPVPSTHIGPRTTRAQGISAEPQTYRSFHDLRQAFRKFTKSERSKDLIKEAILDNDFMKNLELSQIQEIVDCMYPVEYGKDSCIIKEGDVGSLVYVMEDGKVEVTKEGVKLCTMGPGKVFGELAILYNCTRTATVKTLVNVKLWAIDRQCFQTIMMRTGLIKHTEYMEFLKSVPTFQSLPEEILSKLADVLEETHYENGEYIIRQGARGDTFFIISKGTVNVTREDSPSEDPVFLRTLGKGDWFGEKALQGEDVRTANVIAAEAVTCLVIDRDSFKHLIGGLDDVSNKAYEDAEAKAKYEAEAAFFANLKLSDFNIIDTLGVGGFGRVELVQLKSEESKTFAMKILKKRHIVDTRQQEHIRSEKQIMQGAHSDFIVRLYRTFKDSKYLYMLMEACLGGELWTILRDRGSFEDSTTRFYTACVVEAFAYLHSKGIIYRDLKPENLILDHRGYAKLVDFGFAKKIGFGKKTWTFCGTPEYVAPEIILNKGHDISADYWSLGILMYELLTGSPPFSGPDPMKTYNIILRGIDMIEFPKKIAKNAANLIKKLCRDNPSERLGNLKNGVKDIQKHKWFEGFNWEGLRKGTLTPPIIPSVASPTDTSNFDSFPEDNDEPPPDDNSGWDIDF

[35] = biological target: ROCK1 (human) (UniProt Q13464)
[36] = biological target: RPS6KA1 KD1 KD2 (human) (UniProt Q15418)
RPS6KA1 KD1 KD2 (human), sequence (Q15418 whole entry, looked up): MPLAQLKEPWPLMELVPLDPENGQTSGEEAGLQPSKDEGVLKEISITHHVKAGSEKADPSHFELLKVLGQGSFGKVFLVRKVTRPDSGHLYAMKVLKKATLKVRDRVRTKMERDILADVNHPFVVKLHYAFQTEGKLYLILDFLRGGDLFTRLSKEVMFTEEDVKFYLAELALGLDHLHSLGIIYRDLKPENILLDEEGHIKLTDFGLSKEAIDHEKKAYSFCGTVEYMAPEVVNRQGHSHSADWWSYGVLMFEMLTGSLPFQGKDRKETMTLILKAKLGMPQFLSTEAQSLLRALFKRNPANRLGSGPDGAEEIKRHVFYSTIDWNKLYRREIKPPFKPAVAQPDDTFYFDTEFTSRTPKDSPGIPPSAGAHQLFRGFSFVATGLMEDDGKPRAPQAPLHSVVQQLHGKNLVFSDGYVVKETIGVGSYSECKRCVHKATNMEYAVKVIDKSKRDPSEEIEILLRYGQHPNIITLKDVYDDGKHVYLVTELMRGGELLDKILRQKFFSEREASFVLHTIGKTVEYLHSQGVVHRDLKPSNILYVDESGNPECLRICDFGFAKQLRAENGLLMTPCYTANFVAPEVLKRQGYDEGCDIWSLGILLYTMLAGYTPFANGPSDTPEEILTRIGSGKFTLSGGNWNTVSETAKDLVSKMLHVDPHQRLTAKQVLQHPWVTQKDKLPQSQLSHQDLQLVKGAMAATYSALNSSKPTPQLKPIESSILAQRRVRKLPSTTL

[37] = biological target: RPS6KB1 (human) (UniProt P23443)
RPS6KB1 (human), sequence (P23443 whole entry, looked up): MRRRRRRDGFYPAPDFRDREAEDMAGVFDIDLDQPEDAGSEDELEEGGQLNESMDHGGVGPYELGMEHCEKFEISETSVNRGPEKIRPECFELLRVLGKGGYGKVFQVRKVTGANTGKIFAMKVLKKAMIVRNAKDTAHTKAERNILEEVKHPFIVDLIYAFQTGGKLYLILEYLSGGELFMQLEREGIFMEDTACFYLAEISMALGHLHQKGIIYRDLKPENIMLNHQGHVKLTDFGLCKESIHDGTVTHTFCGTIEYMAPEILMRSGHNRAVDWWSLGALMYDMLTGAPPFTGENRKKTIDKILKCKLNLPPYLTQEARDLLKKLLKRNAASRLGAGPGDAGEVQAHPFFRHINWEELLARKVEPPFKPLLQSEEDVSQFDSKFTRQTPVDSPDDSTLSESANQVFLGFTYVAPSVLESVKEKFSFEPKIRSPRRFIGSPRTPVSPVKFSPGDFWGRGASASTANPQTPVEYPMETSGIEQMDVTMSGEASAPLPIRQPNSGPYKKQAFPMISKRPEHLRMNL

[38] = biological target: RPS6KB2 (human) (UniProt Q9UBS0)
[39] = biological target: SGK2 (human) (UniProt Q9HBY8)
[40] = biological target: SRPK1 (human) (UniProt Q96SB4)
SRPK1 (human), sequence (Q96SB4 whole entry, looked up): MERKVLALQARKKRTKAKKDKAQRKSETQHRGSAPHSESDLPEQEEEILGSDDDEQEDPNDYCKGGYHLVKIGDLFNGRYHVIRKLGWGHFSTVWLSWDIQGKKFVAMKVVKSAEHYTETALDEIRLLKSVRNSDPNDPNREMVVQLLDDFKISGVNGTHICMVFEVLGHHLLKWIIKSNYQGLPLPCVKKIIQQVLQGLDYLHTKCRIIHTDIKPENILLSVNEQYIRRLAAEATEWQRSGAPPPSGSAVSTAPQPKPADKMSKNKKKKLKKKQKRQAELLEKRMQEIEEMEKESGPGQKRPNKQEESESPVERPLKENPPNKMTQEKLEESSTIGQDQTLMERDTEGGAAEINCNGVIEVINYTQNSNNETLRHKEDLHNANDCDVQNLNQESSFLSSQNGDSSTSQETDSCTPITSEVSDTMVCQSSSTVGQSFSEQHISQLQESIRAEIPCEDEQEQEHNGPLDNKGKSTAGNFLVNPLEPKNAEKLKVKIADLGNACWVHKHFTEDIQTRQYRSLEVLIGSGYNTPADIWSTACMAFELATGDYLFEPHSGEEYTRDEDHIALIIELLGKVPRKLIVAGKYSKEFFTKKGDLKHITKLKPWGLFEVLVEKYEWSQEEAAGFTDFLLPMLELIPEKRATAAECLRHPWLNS

[41] = biological target: TEC (human) (UniProt P42680)
[42] = biological target: ULK1 (human) (UniProt O75385)

For `CN(C)S(=O)(=O)c1ccc2c(c1)/C(=C/c1cc3c([nH]1)CCCC3)C(=O)N2`, the residual activity [1] was 98.6%, the residual activity [2] was 43.6% and the residual activity [3] was 33.8%. It also gave a residual activity [4] of 92.5%, a residual activity [5] of 46.1% and a residual activity [6] of 115%. For the same compound, the residual activity [7] was 92.9%, the residual activity [8] was 91.3% and the residual activity [9] was 101%. The residual activity [10] was 92.9%, the residual activity [11] was 5.59% and the residual activity [12] was 64.8%. The residual activity [13] was 96.9%, the residual activity [14] was 60.7% and the residual activity [15] was 101%. For the same compound, the residual activity [16] was 105%, the residual activity [17] was 103% and the residual activity [18] was 103%. For the same compound, the residual activity [19] was 54.6%, the residual activity [20] was 89.1% and the residual activity [21] was 101%. For the same compound, the residual activity [22] was 45.6%, the residual activity [23] was 97.2% and the residual activity [24] was 99.9%. For the same compound, the residual activity [25] was 90.7%, the residual activity [26] was 103% and the residual activity [27] was 95.1%. It also gave a residual activity [28] of 95.6%, a residual activity [29] of 117% and a residual activity [30] of 94.9%. The residual activity [31] was 78.5%, the residual activity [32] was 98.9% and the residual activity [33] was 102%. The residual activity [34] was 82.5% and 88.6%, the residual activity [35] was 95.2% and the residual activity [36] was 68.1%. For the same compound, the residual activity [37] was 96.5%, the residual activity [38] was 92.6% and the residual activity [39] was 101%. It also gave a residual activity [40] of 63.8%, a residual activity [41] of 116% and a residual activity [42] of 6.13%.

For `COc1ccc(S(=O)(=O)N(CCO)c2ccccc2CN(C)C/C=C/c2ccc(Cl)cc2)cc1`, the residual activity [1] was 90.6%, the residual activity [2] was 98.1% and the residual activity [3] was 96.8%. For the same compound, the residual activity [4] was 92.7%, the residual activity [5] was 101% and the residual activity [6] was 92.7%. The residual activity [7] was 100%, the residual activity [8] was 99.2% and the residual activity [9] was 97.8%. It also gave a residual activity [10] of 98.3%, a residual activity [11] of 98% and a residual activity [12] of 97%. The residual activity [13] was 101%, the residual activity [14] was 103% and the residual activity [15] was 97%. It also gave a residual activity [16] of 95.5%, a residual activity [17] of 98.9% and a residual activity [18] of 102%. The residual activity [19] was 98.4%, the residual activity [20] was 99.4% and the residual activity [21] was 95.4%. It also gave a residual activity [22] of 105%, a residual activity [23] of 98.4% and a residual activity [24] of 98.7%. The residual activity [25] was 103%, the residual activity [26] was 93.4% and the residual activity [27] was 113%. For the same compound, the residual activity [28] was 103%, the residual activity [29] was 105% and the residual activity [30] was 98.2%. For the same compound, the residual activity [31] was 95.9%, the residual activity [32] was 100% and the residual activity [33] was 99.8%. For the same compound, the residual activity [34] was 93.2% and 94.7%, the residual activity [35] was 99.7% and the residual activity [36] was 108%. For the same compound, the residual activity [37] was 103%, the residual activity [38] was 97.1% and the residual activity [39] was 99.8%. For the same compound, the residual activity [40] was 105%, the residual activity [41] was 101% and the residual activity [42] was 99.7%.
